Test results taken from ChEMBL document CHEMBL1201861, “Genomics of Drug Sensitity in Cancer screening data, Wellcome Trust Sanger Institute”.

How the values were obtained:
D-542MG = assay: cells; assay type: functional, cell-based, Homo sapiens; conditions: Homo sapiens, D-542MG
Description: SANGER: Inhibition of human D-542MG cell growth in a cell viability assay.

DK-MG = assay: cells; assay type: functional, cell-based, Homo sapiens; conditions: Homo sapiens, DK-MG;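 note: growth inhibition of DK-MG cells, read out with a cell viability assay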
Description: SANGER: Inhibition of human DK-MG cell growth in a cell viability assay.

DMS-273 = assay: cells; assay type: functional, cell-based, Homo sapiens; conditions: Homo sapiens, DMS-273
Description: SANGER: Inhibition of human DMS-273 cell growth in a cell viability assay.

DU-145 = assay: cells; assay type: functional, cell-based, Homo sapiens; conditions: Homo sapiens, DU-145
Description: SANGER: Inhibition of human DU-145 cell growth in a cell viability assay.

FTC-133 = assay: cells; assay type: functional, cell-based, Homo sapiens; conditions: Homo sapiens, FTC-133
HCC1419 = assay: cells; assay type: functional, cell-based, Homo sapiens; conditions: Homo sapiens, HCC1419;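 note: growth inhibition of human HCC1419 cells, read out as cell viability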
Description: SANGER: Inhibition of human HCC1419 cell growth in a cell viability assay.

HCC70 = assay: cells; assay type: functional, cell-based, Homo sapiens; conditions: Homo sapiens, HCC70;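 note: cell viability assay measuring how strongly the compound suppresses proliferation of HCC70 cells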
Description: SANGER: Inhibition of human HCC70 cell growth in a cell viability assay.

HPAF-II = assay: cells; assay type: functional, cell-based, Homo sapiens; conditions: Homo sapiens, HPAF-II;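 note: growth inhibition of HPAF-II cells, read out with a cell viability assay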
Description: SANGER: Inhibition of human HPAF-II cell growth in a cell viability assay.

HuCCT-1 = assay: cells; assay type: functional, cell-based, Homo sapiens, HuCCT1; conditions: Homo sapiens, HuCCT-1;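 note: growth inhibition of HuCCT-1 cells, read out by a cell viability assay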
Description: SANGER: Inhibition of human HuCCT1 cell growth in a cell viability assay.

IM-9 = assay: SANGER: Inhibition of human IM-9 cell growth in a cell viability assay.; assay type: functional, cell-based; conditions: Homo sapiens, IM-9
J82 = assay: cells; assay type: functional, cell-based, Homo sapiens; conditions: Homo sapiens, J82;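 note: growth inhibition of J82 cells, read out with a cell viability assay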
Description: SANGER: Inhibition of human J82 cell growth in a cell viability assay.

K052 = assay: cells; assay type: functional, cell-based, Homo sapiens; conditions: Homo sapiens, K052;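 note: Read-out from a cell viability assay, IC50 reflecting suppression of K052 cell growth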
Description: SANGER: Inhibition of human K052 cell growth in a cell viability assay.

KP-N-YN = assay: cells; assay type: functional, cell-based, Homo sapiens; conditions: Homo sapiens, KP-N-YN;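 note: growth inhibition of KP-N-YN cells, read out with a cell viability assay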
Description: SANGER: Inhibition of human KP-N-YN cell growth in a cell viability assay.

LoVo = assay: cells; assay type: functional, cell-based, Homo sapiens; conditions: Homo sapiens, LoVo;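 note: growth inhibition of human LoVo cells, read out with a cell viability assay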
Description: SANGER: Inhibition of human LoVo cell growth in a cell viability assay.

MC-IXC = assay: cells; assay type: functional, cell-based, Homo sapiens; conditions: Homo sapiens, MC-IXC;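 note: growth inhibition of MC-IXC cells, read out with a cell viability assay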
Description: SANGER: Inhibition of human MC-IXC cell growth in a cell viability assay.

MDA-MB-453 = assay: cells; assay type: functional, cell-based, Homo sapiens; conditions: Homo sapiens, MDA-MB-453
Description: SANGER: Inhibition of human MDA-MB-453 cell growth in a cell viability assay.

NCI-H1703 = assay: cells; assay type: functional, cell-based, Homo sapiens; conditions: Homo sapiens, NCI-H1703;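 note: growth inhibition of NCI-H1703 cells, read out via a cell viability assay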
Description: SANGER: Inhibition of human NCI-H1703 cell growth in a cell viability assay.

NCI-H2141 = assay: cells; assay type: functional, cell-based, Homo sapiens; conditions: Homo sapiens, NCI-H2141;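 note: growth inhibition of human NCI-H2141 cells, read out with a cell viability assay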
Description: SANGER: Inhibition of human NCI-H2141 cell growth in a cell viability assay.

NCI-H2405 = assay: cells; assay type: functional, cell-based, Homo sapiens; conditions: Homo sapiens, NCI-H2405;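 note: growth inhibition of the human cell line, read out with a cell viability assay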
Description: SANGER: Inhibition of human NCI-H2405 cell growth in a cell viability assay.

NCI-H28 = assay: cells; assay type: functional, cell-based, Homo sapiens; conditions: Homo sapiens, NCI-H28;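 note: growth inhibition of human NCI-H28 cells, read out as cell viability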
Description: SANGER: Inhibition of human NCI-H28 cell growth in a cell viability assay.

NCI-H345 = assay: cells; assay type: functional, cell-based, Homo sapiens; conditions: Homo sapiens, NCI-H345;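 note: growth inhibition of NCI-H345 cells measured with a cell viability assay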
Description: SANGER: Inhibition of human NCI-H345 cell growth in a cell viability assay.

NCI-H650 = assay: cells; assay type: functional, cell-based, Homo sapiens; conditions: Homo sapiens, NCI-H650;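 note: growth inhibition of NCI-H650 cells, read out by a viability assay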
Description: SANGER: Inhibition of human NCI-H650 cell growth in a cell viability assay.

NCI-H719 = assay: cells; assay type: functional, cell-based, Homo sapiens; conditions: Homo sapiens, NCI-H719;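 note: growth inhibition of the cultured cell line, read out with a viability assay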
Description: SANGER: Inhibition of human NCI-H719 cell growth in a cell viability assay.

NCI-H810 = assay: cells; assay type: functional, cell-based, Homo sapiens; conditions: Homo sapiens, NCI-H810;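 note: IC50 reflects inhibition of cancer cell line growth, read out with a cell viability assay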
Description: SANGER: Inhibition of human NCI-H810 cell growth in a cell viability assay.

NCI-H889 = assay: cells; assay type: functional, cell-based, Homo sapiens; conditions: Homo sapiens, NCI-H889;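 note: cell growth inhibition of the cell line, read out with a viability assay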
Description: SANGER: Inhibition of human NCI-H889 cell growth in a cell viability assay.

SNU-16 = assay: cells; assay type: functional, cell-based, Homo sapiens; conditions: Homo sapiens, SNU-16;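 note: growth inhibition of human SNU-16 cells, determined with a cell viability readout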
Description: SANGER: Inhibition of human NCI-SNU-16 cell growth in a cell viability assay.

OE19 = assay: cells; assay type: functional, cell-based, Homo sapiens; conditions: Homo sapiens, OE19;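 note: growth inhibition of OE19 cells, measured through a cell viability read-out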
Description: SANGER: Inhibition of human OE19 cell growth in a cell viability assay.

RD = assay: cells; assay type: functional, cell-based, Homo sapiens; conditions: Homo sapiens, RD
Description: SANGER: Inhibition of human RD cell growth in a cell viability assay.

RPMI-6666 = assay: cells; assay type: functional, cell-based, Homo sapiens; conditions: Homo sapiens, RPMI-6666
Description: SANGER: Inhibition of human RPMI-6666 cell growth in a cell viability assay.

SCC-4 = assay: cells; assay type: functional, cell-based, Homo sapiens; conditions: Homo sapiens, SCC-4;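 note: growth inhibition of human SCC-4 cells, read out as cell viability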
Description: SANGER: Inhibition of human SCC-4 cell growth in a cell viability assay.

SK-MEL-28 = assay: cells; assay type: functional, cell-based, Homo sapiens; conditions: Homo sapiens, SK-MEL-28;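 note: growth inhibition of human SK-MEL-28 cells, read out with a cell viability assay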
Description: SANGER: Inhibition of human SK-MEL-28 cell growth in a cell viability assay.

SNU-C1 = assay: cells; assay type: functional, cell-based, Homo sapiens; conditions: Homo sapiens, SNU-C1;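 note: growth inhibition of SNU-C1 human cells, read out by a cell viability assay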
Description: SANGER: Inhibition of human SNU-C1 cell growth in a cell viability assay.

SW1573 = assay: cells; assay type: functional, cell-based, Homo sapiens; conditions: Homo sapiens, SW1573;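 note: growth inhibition of SW1573 cells, read out with a cell viability assay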
Description: SANGER: Inhibition of human SW1573 cell growth in a cell viability assay.

SW948 = assay: cells; assay type: functional, cell-based, Homo sapiens; conditions: Homo sapiens, SW948;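 note: growth inhibition of SW948 cells, read out with a cell viability assay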
Description: SANGER: Inhibition of human SW948 cell growth in a cell viability assay.

23132-87 = assay: cells; assay type: functional, cell-based, Homo sapiens; conditions: Homo sapiens
Description: SANGER: Inhibition of human 23132-87 cell growth in a cell viability assay.

A-375 = assay: cells; assay type: functional, cell-based, Homo sapiens; conditions: Homo sapiens, A-375;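 note: growth inhibition of A375 cells, read out with a cell viability assay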
Description: SANGER: Inhibition of human A375 cell growth in a cell viability assay.

ASPC1 = assay: cells; assay type: functional, cell-based, Homo sapiens; conditions: Homo sapiens, ASPC1;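 note: growth inhibition of AsPC-1 cells, read out with a cell viability assay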
Description: SANGER: Inhibition of human AsPC-1 cell growth in a cell viability assay.

BEN = assay: cells; assay type: functional, cell-based, Homo sapiens; conditions: Homo sapiens, BEN;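 note: growth inhibition of the BEN cell line, read out with a cell viability assay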
Description: SANGER: Inhibition of human BEN cell growth in a cell viability assay.

C-33-A = assay: cells; assay type: functional, cell-based, Homo sapiens; conditions: Homo sapiens, C-33-A;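 note: cell viability assay measuring growth inhibition of C-33-A cells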
Description: SANGER: Inhibition of human C-33-A cell growth in a cell viability assay.

CAL-27 = assay: cells; assay type: functional, cell-based, Homo sapiens; conditions: Homo sapiens, CAL-27;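 note: Viability-based readout, IC50 reflecting inhibition of CAL-27 cell growth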
Description: SANGER: Inhibition of human CAL-27 cell growth in a cell viability assay.

CAL-54 = assay: cells; assay type: functional, cell-based, Homo sapiens; conditions: Homo sapiens, CAL-54;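 note: growth inhibition of CAL-54 cells, read out by a viability measurement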
Description: SANGER: Inhibition of human CAL-54 cell growth in a cell viability assay.

TUR = assay: cells; assay type: functional, cell-based, Homo sapiens; conditions: Homo sapiens, TUR;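 note: growth inhibition of human TUR cells, read out with a cell viability assay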
Description: SANGER: Inhibition of human TUR cell growth in a cell viability assay.

CESS = assay: SANGER: Inhibition of human CESS cell growth in a cell viability assay.; assay type: functional, cell-based; conditions: Homo sapiens, CESS
CHL-1 = assay: cells; assay type: functional, cell-based, Homo sapiens; conditions: Homo sapiens, CHL-1;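 note: cell growth inhibition, read out with a cell viability assay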
Description: SANGER: Inhibition of human CHL-1 cell growth in a cell viability assay.

SMILES: Oc1ccc2ccccc2c1SSc1c(O)ccc2ccccc12
- IC50 (D-542MG): 27.2 µM
- IC50 (DK-MG): > 32 µM
- IC50 (DMS-273): > 32 µM
- IC50 (DU-145): 8.21 µM
- IC50 (FTC-133): > 32 µM
- IC50 (HCC1419): > 32 µM
- IC50 (HCC70): > 32 µM
- IC50 (HPAF-II): > 32 µM
- IC50 (HuCCT-1): 20.1 µM
- IC50 (IM-9): 7.93 µM
- IC50 (J82): 7.05 µM
- IC50 (K052): > 32 µM
- IC50 (KP-N-YN): > 32 µM
- IC50 (LoVo): > 32 µM
- IC50 (MC-IXC): > 32 µM
- IC50 (MDA-MB-453): > 32 µM
- IC50 (NCI-H1703): > 32 µM
- IC50 (NCI-H2141): > 32 µM
- IC50 (NCI-H2405): 12 µM
- IC50 (NCI-H28): > 32 µM
- IC50 (NCI-H345): > 32 µM
- IC50 (NCI-H650): > 32 µM
- IC50 (NCI-H719): 12.9 µM
- IC50 (NCI-H810): > 32 µM
- IC50 (NCI-H889): > 32 µM
- IC50 (SNU-16): > 32 µM
- IC50 (OE19): > 32 µM
- IC50 (RD): > 32 µM
- IC50 (RPMI-6666): > 32 µM
- IC50 (SCC-4): > 32 µM
- IC50 (SK-MEL-28): > 32 µM
- IC50 (SNU-C1): > 32 µM
- IC50 (SW1573): > 32 µM
- IC50 (SW948): > 32 µM
- IC50 (23132-87): > 32 µM
- IC50 (A-375): > 32 µM
- IC50 (ASPC1): > 32 µM
- IC50 (BEN): > 32 µM
- IC50 (C-33-A): > 32 µM
- IC50 (CAL-27): > 32 µM
- IC50 (CAL-54): > 32 µM
- IC50 (TUR): > 32 µM
- IC50 (CESS): 12.4 µM
- IC50 (CHL-1): 11.9 µM

SMILES: CCC/C=C/C=C/C(=O)O[C@H]1/C(=C/C(=O)OC)C[C@H]2C[C@H]([C@@H](C)O)OC(=O)C[C@H](O)C[C@@H]3C[C@H](OC(C)=O)C(C)(C)[C@](O)(C[C@@H]4C/C(=C/C(=O)OC)C[C@H](/C=C/C(C)(C)[C@]1(O)O2)O4)O3 [BRYOSTATIN 1]
- IC50 (D-542MG): 0.00756 µM
- IC50 (DK-MG): > 0.008 µM
- IC50 (DMS-273): > 0.008 µM
- IC50 (DU-145): > 0.008 µM
- IC50 (FTC-133): > 0.008 µM
- IC50 (HCC1419): > 0.008 µM
- IC50 (HCC70): > 0.008 µM
- IC50 (HPAF-II): > 0.008 µM
- IC50 (HuCCT-1): > 0.008 µM
- IC50 (IM-9): > 0.008 µM
- IC50 (J82): > 0.008 µM
- IC50 (K052): > 0.008 µM
- IC50 (KP-N-YN): > 0.008 µM
- IC50 (LoVo): > 0.008 µM
- IC50 (MC-IXC): > 0.008 µM
- IC50 (MDA-MB-453): > 0.008 µM
- IC50 (NCI-H1703): > 0.008 µM
- IC50 (NCI-H2141): > 0.008 µM
- IC50 (NCI-H2405): > 0.008 µM
- IC50 (NCI-H28): > 0.008 µM
- IC50 (NCI-H345): > 0.008 µM
- IC50 (NCI-H650): > 0.008 µM
- IC50 (NCI-H719): > 0.008 µM
- IC50 (NCI-H810): > 0.008 µM
- IC50 (NCI-H889): > 0.008 µM
- IC50 (SNU-16): > 0.008 µM
- IC50 (OE19): > 0.008 µM
- IC50 (RD): > 0.008 µM
- IC50 (RPMI-6666): > 0.008 µM
- IC50 (SCC-4): > 0.008 µM
- IC50 (SK-MEL-28): > 0.008 µM
- IC50 (SNU-C1): > 0.008 µM
- IC50 (SW1573): > 0.008 µM
- IC50 (SW948): > 0.008 µM
- IC50 (23132-87): > 0.008 µM
- IC50 (A-375): > 0.008 µM
- IC50 (ASPC1): > 0.008 µM
- IC50 (BEN): > 0.008 µM
- IC50 (C-33-A): > 0.008 µM
- IC50 (CAL-27): > 0.008 µM
- IC50 (CAL-54): > 0.008 µM
- IC50 (TUR): > 0.008 µM
- IC50 (CESS): > 0.008 µM
- IC50 (CHL-1): > 0.008 µM
